Assays:
[1] = tested on: blood coagulation; assay: PT and aPTT assay in cynomolgus monkeys (Example 45); format: in vivo; conditions: platelet poor plasma
Experimental: (§1) Groups, each consisting of two male and three female monkeys, were injected subcutaneously with ISIS 416838, ISIS 416850, ISIS 416858, ISIS 416864, or ISIS 417002 in escalating doses. Antisense oligonucleotide was administered to the monkeys at 5 mg/kg three times per a week for week 1; 5 mg/kg twice per week for weeks 2 and 3; 10 mg/kg three times per week for week 4; 10 mg/kg twice per week for weeks 5 and 6; 25 mg/kg three times per week for week 7; and 25 mg/kg twice per week for weeks 8, 9, 10, 11, and 12. One control group, consisting of two male and three female monkeys, was injected subcutaneously with PBS according to the same dosing regimen. An additional experimental group, consisting of two male and three female monkeys, was injected subcutaneously with ISIS 416850 in a chronic, lower dose regimen. Antisense oligonucleotide was administered to the monkeys at 5 mg/kg three times per week for week 1; 5 mg/kg twice per week for week 2 and 3; 10 mg/kg three times per week for week 4; and 10 mg/kg twice per week for weeks 5 to 12. Body weights were measured weekly. Blood samples were collected 14 days and 5 days before the start of treatment and subsequently once per week for Factor 11 protein activity analysis in plasma, fibrinogen measurement, PT and aPTT measurements, bleeding times, and measurement of various hematologic factors. On day 85, the monkeys were euthanized by exsanguination while under deep anesthesia, and organs harvested for further analysis.
Blood samples were collected in tubes containing sodium citrate. PT and aPTT were determined in duplicate with an ACL 9000 coagulation instrument (Instrumentation Laboratory, Italy). The results were interpolated on a standard curve of serial dilutions citrated control monkey plasma tested to give a reported result in percent normal.
Prothrombin Time (PT) and Activated Partial Thromboplastin Time (aPTT) were measured using platelet poor plasma (PPP) from monkeys treated with ISIS oligonucleotides. PT and aPTT values are provided in Tables 116 and 117 and are reported as International Normalized Ratio (INR) values. INR values for PT and aPTT were determined by dividing the PT or aPTT value for each experimental group by the PT or aPTT for the PBS treated group. This ratio was then raised to the power of the International Sensitivity Index (ISI) of the tissue factor used. The ISIS oligonucleotide, ISIS 416850, given with the chronic dose regimen is distinguished from the other oligonucleotides with an asterisk (*).

[2] = Kidney function, urine protein to creatinine ratio in cynomolgus monkeys (Example 45); format: in vivo
Experimental: as §1
To evaluate the impact of ISIS oligonucleotides on kidney function, urine samples were collected.

[3] = Tolerability in CD1 mice: hematology assays (Example 41); conditions: 50 mg/kg s.c. twice per week for 6 weeks, blood
[4] = Tolerability in CD1 mice: kidney function, BUN (Example 41); conditions: 50 mg/kg s.c. twice per week for 6 weeks, plasma
[5] = Tolerability in Sprague-Dawley rats: hematology assays (Example 35); conditions: 50 mg/kg s.c. twice per week for 6 weeks; for HCT / MCH / MCHC / MCV: title says % control
[6] = Tolerability in CD1 mice: body weight and organ weights (Example 37); conditions: 50 mg/kg s.c. twice per week for 6 weeks; for body weight: increase in grams over the PBS control weight taken before the start of treatment; for Kidney weight / Liver weight / Spleen weight: percentage of the body weight
[7] = mouse, in vivo
[8] = day 8, chronic dose regimen (*)
[9] = day 15, chronic dose regimen (*)
[10] = day 15, escalating dose regimen
[11] = day 22, chronic dose regimen (*)
[12] = day 22, escalating dose regimen
[13] = day 29, chronic dose regimen (*)
[14] = day 29, escalating dose regimen
[15] = day 36, chronic dose regimen (*)
[16] = day 36, escalating dose regimen
[17] = day 43, chronic dose regimen (*)
[18] = day 43, escalating dose regimen
[19] = day 50, chronic dose regimen (*)
[20] = day 50, escalating dose regimen
[21] = day 57, escalating dose regimen
[22] = day 64, escalating dose regimen
[23] = day 71, escalating dose regimen
[24] = day 78, escalating dose regimen
[25] = day 85, escalating dose regimen
[26] = day −5, chronic dose regimen (*)
[27] = day −5, escalating dose regimen
[28] = day −14, chronic dose regimen (*)
[29] = day −14, escalating dose regimen

## ISIS 416850: MOE gapmer, nucleobases 1275 to 1318 of SEQ ID NO: 1 (Table 8) (antisense TGCACAGTTTCTGGCAGGCC; MOE gapmer, wing and gap sizes not given here)
[1]; [8]
  PT ratio (INR): 1.03
  aPTT ratio (INR): 1.12
[1]; day 8, escalating dose regimen
  PT ratio (INR): 1.00
  aPTT ratio (INR): 1.05
[1]; [9]
  PT ratio (INR): 1.06
  aPTT ratio (INR): 1.07
[1]; [10]
  PT ratio (INR): 1.02
  aPTT ratio (INR): 1.05
[1]; [11]
  PT ratio (INR): 1.06
  aPTT ratio (INR): 1.21
[1]; [12]
  PT ratio (INR): 1.02
  aPTT ratio (INR): 1.13
[1]; [13]
  PT ratio (INR): 1.00
  aPTT ratio (INR): 1.26
[1]; [14]
  PT ratio (INR): 1.03
  aPTT ratio (INR): 1.13
[1]; [15]
  PT ratio (INR): 1.06
  aPTT ratio (INR): 1.34
[1]; [16]
  PT ratio (INR): 1.02
  aPTT ratio (INR): 1.26
[1]; [17]
  PT ratio (INR): 1.02
  aPTT ratio (INR): 1.22
[1]; [18]
  PT ratio (INR): 1.01
  aPTT ratio (INR): 1.17
[1]; [19]
  PT ratio (INR): 0.98
  aPTT ratio (INR): 1.35
[1]; [20]
  PT ratio (INR): 1.02
  aPTT ratio (INR): 1.68
[1]; [21]
  PT ratio (INR): 1.04
  aPTT ratio (INR): 1.59
[1]; [22]
  PT ratio (INR): 1.03
  aPTT ratio (INR): 1.64
[1]; [23]
  PT ratio (INR): 1.03
  aPTT ratio (INR): 1.76
[1]; [24]
  PT ratio (INR): 1.05
  aPTT ratio (INR): 1.88
[1]; [25]
  PT ratio (INR): 1.04
  aPTT ratio (INR): 1.99
[1]; [26]
  PT ratio (INR): 1.00
  aPTT ratio (INR): 1.00
[1]; [27]
  PT ratio (INR): 1.00
  aPTT ratio (INR): 1.00
[1]; [28]
  PT ratio (INR): 1.00
  aPTT ratio (INR): 1.00
[1]; [29]
  PT ratio (INR): 1.00
  aPTT ratio (INR): 1.00
[2]; Day 80
  urine protein to creatinine ratio: 0.09
[2]; Day 84
  urine protein to creatinine ratio: 0.12
[3]
  HCT: 50%
  Lymphocyte: 4710
  Neutrophil: 1314
  Platelets: 614
  RBC: 9.8
  WBC: 6
  hemoglobin: 14.8 g/dL
[4]
  BUN: 28 mg/dL
[5]
  Platelets: 26 10^3/μL
  RBC: 7
  WBC: 16 nL⁻¹
  lymphocytes: 8%
  monocytes: 11%
  neutrophils: 48%
  HCT: 5%
  MCH: 4
  MCHC: 2%
  MCV: 3
[6]
  body weight: 12 g
  Kidney weight: 1.6%
  Liver weight: 6%
  Spleen weight: 0.4%

## ISIS 416858: MOE gapmer, nucleobases 1275 to 1318 of SEQ ID NO: 1 (Table 8) (antisense ACGGCATTGGTGCACAGTTT; MOE gapmer, wing and gap sizes not given here)
[1]; day 8, escalating dose regimen
  PT ratio (INR): 1.05
  aPTT ratio (INR): 1.03
[1]; [10]
  PT ratio (INR): 1.07
  aPTT ratio (INR): 1.07
[1]; [12]
  PT ratio (INR): 1.06
  aPTT ratio (INR): 1.18
[1]; [14]
  PT ratio (INR): 1.08
  aPTT ratio (INR): 1.20
[1]; [16]
  PT ratio (INR): 1.07
  aPTT ratio (INR): 1.36
[1]; [18]
  PT ratio (INR): 1.08
  aPTT ratio (INR): 1.28
[1]; [20]
  PT ratio (INR): 1.03
  aPTT ratio (INR): 1.55
[1]; [21]
  PT ratio (INR): 1.09
  aPTT ratio (INR): 1.59
[1]; [22]
  PT ratio (INR): 1.09
  aPTT ratio (INR): 1.60
[1]; [23]
  PT ratio (INR): 1.07
  aPTT ratio (INR): 1.70
[1]; [24]
  PT ratio (INR): 1.10
  aPTT ratio (INR): 1.79
[1]; [25]
  PT ratio (INR): 1.07
  aPTT ratio (INR): 1.76
[1]; [27]
  PT ratio (INR): 1.00
  aPTT ratio (INR): 1.00
[1]; [29]
  PT ratio (INR): 1.00
  aPTT ratio (INR): 1.00
[2]; Day 80
  urine protein to creatinine ratio: 0.10
[2]; Day 84
  urine protein to creatinine ratio: 0.07
[7]
  RBC count: 9 cells/pL
[5]
  Platelets: 19 10^3/μL
  RBC: 2
  WBC: 28 nL⁻¹
  lymphocytes: 3%
  monocytes: 10%
  neutrophils: 20%
  HCT: 3%
  MCH: 2
  MCHC: 1%
  MCV: 2
[6]
  body weight: 12 g
  Kidney weight: 1.6%
  Liver weight: 7%
  Spleen weight: 0.6%
